This passage reports Ki results from patent US8580794B2 (AbbVie Inc., priority 2009, dated 2013).

pKi: −log10 of the molar value.

The target in the experiment is GST-Bc1-2 (Homo sapiens, UniProt P10415). The experiment can be described thus: Time Resolved-Fluorescence Resonance Energy Transfer (TR-FRET) Bcl-2 binding assay with F-Bak peptide probe. To be noted: GST-Bcl-2 1 nM, F-Bak probe 100 nM, Tb-anti-GST 1 nM; '<' = below limit of detection; read-out: TR-FRET Bcl-2 Binding Ki. For orientation: In TR-FRET formats the signal depends on donor and acceptor labels being close together.
Sequence of GST-Bc1-2 (P10415 whole entry): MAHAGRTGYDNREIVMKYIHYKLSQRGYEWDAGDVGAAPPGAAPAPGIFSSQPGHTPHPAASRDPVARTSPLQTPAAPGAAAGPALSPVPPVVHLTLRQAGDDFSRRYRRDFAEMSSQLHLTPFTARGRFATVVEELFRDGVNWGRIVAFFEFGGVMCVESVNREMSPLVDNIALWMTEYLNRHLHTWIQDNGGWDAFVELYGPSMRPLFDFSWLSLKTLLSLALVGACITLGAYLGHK

Consider `CN1CCC(COc2ncc(S(=O)(=O)NC(=O)c3ccc(N4CCN(CC5=C(c6ccc(Cl)cc6)CC(C)(C)CC5)CC4)cc3Oc3cnc4[nH]ccc4c3)cc2Br)CC1` [Example 47, N-({5-bromo-6-[(1-methylpiperidin-4-yl)methoxy]pyridin-3-yl}sulfonyl)-4-(4-{[2-(4-chlorophenyl)-4,4-dimethylcyclohex-1-en-1-yl]methyl}piperazin-1-yl)-2-(1H-pyrrolo[2,3-b]pyridin-5-yloxy)benzamide], for which the pKi (commonly the Ki on a negative log10 scale, so that one unit is a factor of ten) is more than 11.00.

For `CN1CCC(COc2ccc(S(=O)(=O)NC(=O)c3ccc(N4CCN(CC5=C(c6ccc(Cl)cc6)CC(C)(C)CC5)CC4)cc3Oc3cnc4[nH]ccc4c3)cc2[N+](=O)[O-])CC1` [Example 48, 4-(4-{[2-(4-chlorophenyl)-4,4-dimethylcyclohex-1-en-1-yl]methyl}piperazin-1-yl)-N-({4-[(1-methylpiperidin-4-yl)methoxy]-3-nitrophenyl}sulfonyl)-2-(1H-pyrrolo[2,3-b]pyridin-5-yloxy)benzamide], the pKi is more than 11.00. In the case of `CC1(C)CCC(CN2CCN(c3ccc(C(=O)NS(=O)(=O)c4cnc(OCC5COCCO5)c(C#N)c4)c(Oc4cnc5[nH]ccc5c4)c3)CC2)=C(c2ccc(Cl)cc2)C1` (stereo not shown) [Example 49, 4-(4-{[2-(4-chlorophenyl)-4,4-dimethylcyclohex-1-en-1-yl]methyl}piperazin-1-yl)-N-{[5-cyano-6-(1,4-dioxan-2-ylmethoxy)pyridin-3-yl]sulfonyl}-2-(1H-pyrrolo[2,3-b]pyridin-5-yloxy)benzamide], the negative logarithm of the Ki (pKi) is 10.13. Turning to `CC1(C)CCC(CN2CCN(c3ccc(C(=O)NS(=O)(=O)c4cnc(OCC5COCCO5)c(Br)c4)c(Oc4cnc5[nH]ccc5c4)c3)CC2)=C(c2ccc(Cl)cc2)C1` (stereo not shown) [Example 50, N-{[5-bromo-6-(1,4-dioxan-2-ylmethoxy)pyridin-3-yl]sulfonyl}-4-(4-{[2-(4-chlorophenyl)-4,4-dimethylcyclohex-1-en-1-yl]methyl}piperazin-1-yl)-2-(1H-pyrrolo[2,3-b]pyridin-5-yloxy)benzamide], the pKi was 10.68. Turning to `CC1(C)CCC(CN2CCN(c3ccc(C(=O)NS(=O)(=O)c4ccc(OCC5CCOC(C)(C)C5)c([N+](=O)[O-])c4)c(Oc4cnc5[nH]ccc5c4)c3)CC2)=C(c2ccc(Cl)cc2)C1` (stereo not shown) [Example 51, 4-(4-{[2-(4-chlorophenyl)-4,4-dimethylcyclohex-1-en-1-yl]methyl}piperazin-1-yl)-N-({4-[(2,2-dimethyltetrahydro-2H-pyran-4-yl)methoxy]-3-nitrophenyl}sulfonyl)-2-(1H-pyrrolo[2,3-b]pyridin-5-yloxy)benzamide], the pKi is more than 11.00. On to `CC1(C)CCC(CN2CCN(c3ccc(C(=O)NS(=O)(=O)c4cc(Cl)c(NCC5CCOCC5)c(C#N)c4)c(Oc4cnc5[nH]ccc5c4)c3)CC2)=C(c2ccc(Cl)cc2)C1` [Example 52, N-({3-chloro-5-cyano-4-[(tetrahydro-2H-pyran-4-ylmethyl)amino]phenyl}sulfonyl)-4-(4-{[2-(4-chlorophenyl)-4,4-dimethylcyclohex-1-en-1-yl]methyl}piperazin-1-yl)-2-(1H-pyrrolo[2,3-b]pyridin-5-yloxy)benzamide], for which the pKi is 9.94.

As for `CC(=O)N1CCC(Nc2ccc(S(=O)(=O)NC(=O)c3ccc(N4CCN(CC5=C(c6ccc(Cl)cc6)CC(C)(C)CC5)CC4)cc3Oc3cnc4[nH]ccc4c3)cc2[N+](=O)[O-])CC1` [Example 53, N-({4-[(1-acetylpiperidin-4-yl)amino]-3-nitrophenyl}sulfonyl)-4-(4-{[2-(4-chlorophenyl)-4,4-dimethylcyclohex-1-en-1-yl]methyl}piperazin-1-yl)-2-(1H-pyrrolo[2,3-b]pyridin-5-yloxy)benzamide], the pKi is more than 11.00. As for `CC1(C)CCC(CN2CCN(c3ccc(C(=O)NS(=O)(=O)c4cc(F)c(NCC5CCOCC5)cc4Cl)c(Oc4cnc5[nH]ccc5c4)c3)CC2)=C(c2ccc(Cl)cc2)C1` [Example 54, N-({2-chloro-5-fluoro-4-[(tetrahydro-2H-pyran-4-ylmethyl)amino]phenyl}sulfonyl)-4-(4-{[2-(4-chlorophenyl)-4,4-dimethylcyclohex-1-en-1-yl]methyl}piperazin-1-yl)-2-(1H-pyrrolo[2,3-b]pyridin-5-yloxy)benzamide], the figure is 8.68; as for `CC1(C)CCC(CN2CCN(c3ccc(C(=O)NS(=O)(=O)c4ccc(NCCCN5CCOCC5)c([N+](=O)[O-])c4)c(Oc4cnc5[nH]ccc5c4)c3)CC2)=C(c2ccc(Cl)cc2)C1` [Example 55, 4-(4-{[2-(4-chlorophenyl)-4,4-dimethylcyclohex-1-en-1-yl]methyl}piperazin-1-yl)-N-({4-[(3-morpholin-4-ylpropyl)amino]-3-nitrophenyl}sulfonyl)-2-(1H-pyrrolo[2,3-b]pyridin-5-yloxy)benzamide], more than 11.00. As for `CC1(C)CCC(CN2CCN(c3ccc(C(=O)NS(=O)(=O)c4cnc(OCC5(F)CCOCC5)c(C#N)c4)c(Oc4cnc5[nH]ccc5c4)c3)CC2)=C(c2ccc(Cl)cc2)C1` [Example 56, 4-(4-{[2-(4-chlorophenyl)-4,4-dimethylcyclohex-1-en-1-yl]methyl}piperazin-1-yl)-N-({5-cyano-6-[(4-fluorotetrahydro-2H-pyran-4-yl)methoxy]pyridin-3-yl}sulfonyl)-2-(1H-pyrrolo[2,3-b]pyridin-5-yloxy)benzamide], the figure is 10.43; as for `CC1(C)CCC(CN2CCN(c3ccc(C(=O)NS(=O)(=O)c4cnc(OCCN5CCOCC5)c(C#N)c4)c(Oc4cnc5[nH]ccc5c4)c3)CC2)=C(c2ccc(Cl)cc2)C1` [Example 57, 4-(4-{[2-(4-chlorophenyl)-4,4-dimethylcyclohex-1-en-1-yl]methyl}piperazin-1-yl)-N-{[5-cyano-6-(2-morpholin-4-ylethoxy)pyridin-3-yl]sulfonyl}-2-(1H-pyrrolo[2,3-b]pyridin-5-yloxy)benzamide], 10.20.

On to `COCCOCCS(=O)(=O)c1ccc(S(=O)(=O)NC(=O)c2ccc(N3CCN(CC4=C(c5ccc(Cl)cc5)CC(C)(C)CC4)CC3)cc2Oc2cnc3[nH]ccc3c2)cc1Cl` [Example 58, N-[(3-chloro-4-{[2-(2-methoxyethoxy)ethyl]sulfonyl}phenyl)sulfonyl]-4-(4-{[2-(4-chlorophenyl)-4,4-dimethylcyclohex-1-en-1-yl]methyl}piperazin-1-yl)-2-(1H-pyrrolo[2,3-b]pyridin-5-yloxy)benzamide], for which the negative-log Ki (pKi) was more than 11.00. As for `COCCOCCS(=O)(=O)c1ccc(S(=O)(=O)NC(=O)c2ccc(N3CCN(CC4=C(c5ccc(Cl)cc5)CC(C)(C)CC4)CC3)cc2Oc2cnc3[nH]ccc3c2)cc1[N+](=O)[O-]` [Example 59, 4-(4-{[2-(4-chlorophenyl)-4,4-dimethylcyclohex-1-en-1-yl]methyl}piperazin-1-yl)-N-[(4-{[2-(2-methoxyethoxy)ethyl]sulfonyl}-3-nitrophenyl)sulfonyl]-2-(1H-pyrrolo[2,3-b]pyridin-5-yloxy)benzamide], the figure is 9.69. As for `CC1(C)CCC(CN2CCN(c3ccc(C(=O)NS(=O)(=O)c4ccc(O[C@H]5CC[C@H](N6CCOCC6)CC5)c([N+](=O)[O-])c4)c(Oc4cnc5[nH]ccc5c4)c3)CC2)=C(c2ccc(Cl)cc2)C1` [Example 60, Trans-4-(4-{[2-(4-chlorophenyl)-4,4-dimethylcyclohex-1-en-1-yl]methyl}piperazin-1-yl)-N-({4-[(4-morpholin-4-ylcyclohexyl)oxy]-3-nitrophenyl}sulfonyl)-2-(1H-pyrrolo[2,3-b]pyridin-5-yloxy)benzamide], the negative-log Ki (pKi) is more than 11.00. For `CC1(C)CCC(CN2CCN(c3ccc(C(=O)NS(=O)(=O)c4ccc(NCCC#N)c([N+](=O)[O-])c4)c(Oc4cnc5[nH]ccc5c4)c3)CC2)=C(c2ccc(Cl)cc2)C1` [Example 62, 4-(4-{[2-(4-chlorophenyl)-4,4-dimethylcyclohex-1-en-1-yl]methyl}piperazin-1-yl)-N-({4-[(2-cyanoethyl)amino]-3-nitrophenyl}sulfonyl)-2-(1H-pyrrolo[2,3-b]pyridin-5-yloxy)benzamide] the value was more than 11.00; for `CC1(C)CC(c2ccc(Cl)cc2)=C(CN2CCN(c3ccc(C(=O)NS(=O)(=O)c4ccc(N[C@H]5CC[C@@H](N6CCOCC6)CC5)c([N+](=O)[O-])c4)c(Oc4cnc5[nH]ccc5c4)c3)CC2)CO1` [Example 63, Cis-4-(4-{[4-(4-chlorophenyl)-6,6-dimethyl-5,6-dihydro-2H-pyran-3-yl]methyl}piperazin-1-yl)-N-({4-[(4-morpholin-4-ylcyclohexyl)amino]-3-nitrophenyl}sulfonyl)-2-(1H-pyrrolo[2,3-b]pyridin-5-yloxy)benzamide], more than 11.00; for `CC1(C)CCC(CN2CCN(c3ccc(C(=O)NS(=O)(=O)c4ccc(N[C@H]5CC[C@H](N(CC6CC6)CC6CC6)CC5)c([N+](=O)[O-])c4)c(Oc4cnc5[nH]ccc5c4)c3)CC2)=C(c2ccc(Cl)cc2)C1` [Example 64, Trans-N-{[4-({4-[bis(cyclopropylmethyl)amino]cyclohexyl}amino)-3-nitrophenyl]sulfonyl}-4-(4-{[2-(4-chlorophenyl)-4,4-dimethylcyclohex-1-en-1-yl]methyl}piperazin-1-yl)-2-(1H-pyrrolo[2,3-b]pyridin-5-yloxy)benzamide], more than 11.00. Consider `CN1CCC(CNc2ccc(S(=O)(=O)NC(=O)c3ccc(N4CCN(CC5=C(c6ccc(Cl)cc6)CC(C)(C)CC5)CC4)cc3Oc3cnc4[nH]ccc4c3)cc2[N+](=O)[O-])CC1` [Example 65, 4-(4-{[2-(4-chlorophenyl)-4,4-dimethylcyclohex-1-en-1-yl]methyl}piperazin-1-yl)-N-[(4-{[(1-methylpiperidin-4-yl)methyl]amino}-3-nitrophenyl)sulfonyl]-2-(1H-pyrrolo[2,3-b]pyridin-5-yloxy)benzamide], for which the pKi was more than 11.00. Take `CC1(C)CCC(CN2CCN(c3ccc(C(=O)NS(=O)(=O)c4ccc(NCC5COCCN5)c([N+](=O)[O-])c4)c(Oc4cnc5[nH]ccc5c4)c3)CC2)=C(c2ccc(Cl)cc2)C1` (stereo not shown) [Example 66, 4-(4-{[2-(4-chlorophenyl)-4,4-dimethylcyclohex-1-en-1-yl]methyl}piperazin-1-yl)-N-({4-[(morpholin-3-ylmethyl)amino]-3-nitrophenyl}sulfonyl)-2-(1H-pyrrolo[2,3-b]pyridin-5-yloxy)benzamide]: the negative logarithm of the Ki (pKi) was more than 11.00.
